In patent US20230148184A1, “COMPOUNDS AND METHODS FOR MODULATING SPLICING” (REMIX THERAPEUTICS INC., priority 2020, published 2023) one finds IC50 and AC50 data, which are given here for eleven molecules.

Molecules are shown by their SMILES. Bounds are passed on as bounds.

Holding throughout (format): cell-based
The test system of experiment [1] is SMN2 CJ mRNA. Nature of the experiment: Gene panel canonical junction qPCR assay, SMN2. The note with it: decrease in CJ mRNA levels, RT-qPCR. The gist of the method: (§1)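 A673 or K562 cells treated 24 h at 37 °C with 11-point 3-fold dilutions (top 10 uM final, DMSO ≤0.25%); lysates analysed by one-step RT-qPCR for canonical-junction mRNA. ΔCt vs GAPDH, GUSB or PPIA housekeeper, normalised to DMSO (ΔΔCt), converted to RQ via 2^(−ΔΔCt) and percentage response.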

In experiment [2] the test system is HTT CJ mRNA. Nature of the experiment: Gene panel canonical junction qPCR assay, HTT. The note with it: decrease in CJ mRNA levels, RT-qPCR. Summed up: as §1
The test system of experiment [3] is HTT mRNA. Description: RT-qPCR splicing assay for HTT mRNA isoforms (canonical junction CJ and alternative junction AJ). The note with it: A673 or K562 cell line, 24 hours compound treatment; for IC50: decrease in CJ mRNA; for AC50: increase in AJ mRNA. Summed up:
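A673 (DMEM, 10% FBS) or K562 (IMDM, 10% FBS) cells were treated 24 h at 37 °C with an 11-point 3-fold series, top dose 10 uM, DMSO ≤0.25%. In lysates, HTT CJ and AJ isoforms were quantified by one-step RT-qPCR and normalized to PPIA (A673) or GAPDH/GUSB (K562), at least in duplicate.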

The test system of experiment [4] is Target C CJ mRNA. Description: Gene panel canonical junction qPCR assay, Target C. The note with it: decrease in CJ mRNA levels, RT-qPCR. Summed up:
as §1

For `CN(c1ccc2c(n1)OCc1cc(-n3cccn3)ccc1-2)C1CC(C)(C)NC(C)(C)C1` [Compound 148, N,2,2,6,6-pentamethyl-N-[8-(pyrazol-1-yl)-6H-isochromeno[3,4-b]pyridin-3-yl]piperidin-4-amine], the IC50 fell in the range of 0.1 to 1 µM in experiment [1], 1 to 10 µM in experiment [2], 1 to 10 µM in experiment [3] and 1 to 10 µM in experiment [4]. The molecule also yielded an AC50 in experiment [3] of 1 to 10 µM.

In the case of `CN(c1ccc2c(n1)OCCc1cc(-c3cn[nH]c3)ccc1-2)C1CC(C)(C)NC(C)(C)C1` [Compound 145], the half-maximal inhibitory concentration (IC50) was 1 to 10 µM in experiment [1], above 10 µM in experiment [2], above 10 µM in experiment [3] and 1 to 10 µM in experiment [4]. In addition, the concentration at half-maximal activity (AC50) in experiment [3] is above 10 µM.

As to `CN(c1ccc2c(n1)OCc1cc(-n3cccn3)ccc1-2)[C@@H]1C[C@H]2CCC[C@@H](C1)N2` [Compound 178], the IC50 is below 0.1 µM in experiment [1], below 0.1 µM in experiment [2], below 0.1 µM in experiment [3] and 0.1 to 1 µM in experiment [4]. For the same molecule, the AC50 in experiment [3] is below 0.1 µM.

Turning to `COc1cc(-c2ccc3c(c2)COc2nc(N(C)[C@@H]4C[C@H]5CC[C@@H](C4)N5)ccc2-3)ccn1` [Compound 156], the IC50 in experiment [1] is 0.1 to 1 µM; in experiment [2] it was below 0.1 µM; in experiment [3], below 0.1 µM; in experiment [4], 0.1 to 1 µM. This molecule came in with an AC50 in experiment [3] below 0.1 µM.

As to `CN(c1ccc2c(n1)OCc1cc(-c3ccn(C)c(=O)c3)ccc1-2)[C@@H]1C[C@H]2CC[C@@H](C1)N2` [Compound 153], the IC50 in experiment [1], in experiment [2], in experiment [3] and in experiment [4] was below 0.1 µM throughout. The molecule also registered a half-maximal activity concentration (AC50) in experiment [3] below 0.1 µM.

As to `c1cnn(-c2ccc3c(c2)OCc2nc(N[C@@H]4C[C@H]5CC[C@@H](C4)N5)ccc2-3)c1` [Compound 135, (1R,3S,5S)—N-[8-(pyrazol-1-yl)-5H-chromeno[3,4-b]pyridin-3-yl]-8-azabicyclo[3.2.1]octan-3-amine], the IC50 in experiment [1], in experiment [2], in experiment [3] and in experiment [4] was 1 to 10 µM in each case. This molecule gave a half-maximal activity concentration (AC50) in experiment [3] of 1 to 10 µM.

For `CN1C[C@@H]2CN(c3ccc4c(n3)OCc3cc(-n5cccn5)ccc3-4)C[C@@H]2C1` [Compound 170], the IC50 was 1 to 10 µM in experiment [1], 1 to 10 µM in experiment [2], 1 to 10 µM in experiment [3] and above 10 µM in experiment [4]. In experiment [3], the half-maximal activity concentration (AC50) was in the range of 1 to 10 µM.

For `c1cnn(-c2ccc3c(c2)COc2nc(NC4CNC4)ccc2-3)c1` [Compound 166], the IC50 is 1 to 10 µM in experiment [1], above 10 µM in experiment [2], above 10 µM in experiment [3] and above 10 µM in experiment [4]. Also, the AC50 in experiment [3] is above 10 µM.

Take `CN(c1ccc2c(n1)CCOc1cc(-n3cccn3)ccc1-2)C1CC(C)(C)NC(C)(C)C1` [Compound 129, N-methyl-13-(pyrazol-1-yl)-N-(2,2,6,6-tetramethylpiperidin-4-yl)-10-oxa-6-azatricyclo[9.4.0.0^[2,7]]pentadeca-1(11),2(7),3,5,12,14-hexaen-5-amine]: the IC50 in experiment [1], in experiment [2], in experiment [3] and in experiment [4] was above 10 µM throughout. The molecule also had an AC50 in experiment [3] above 10 µM.

As for `c1cnn(-c2ccc3c(c2)COc2nc(N4CCNCC4)ccc2-3)c1` [Compound 173], the IC50 in experiment [1] was 1 to 10 µM; in experiment [2] it was above 10 µM; in experiment [3], above 10 µM; in experiment [4], above 10 µM. The half-maximal activity concentration (AC50) in experiment [3] was above 10 µM.

On to `CN(c1ccc2c(n1)OCc1cc(-n3nccn3)ccc1-2)[C@@H]1C[C@H]2CC[C@@H](C1)N2` [Compound 151], for which the IC50 was below 0.1 µM in experiment [1], below 0.1 µM in experiment [2], below 0.1 µM in experiment [3] and 0.1 to 1 µM in experiment [4]. For the same molecule, the AC50 in experiment [3] was below 0.1 µM.
